In article PMC10039358, “The 8-bromobaicalein inhibited the replication of dengue, and Zika viruses and targeted the dengue polymerase” (Scientific Reports, 2023):

Key:
[1] = Cytotoxicity (CC50), MTS assay; conditions: human
From the text: (§1) LLC/MK2 (ATCC® CCL-7), HEK-293 (ATCC® CRL-1573), HepG2 (ATCC® HB-8065), THP-1 (ATCC® TIB-202), Huh-7, RD (ATCC® CCL-136™), and C6/36 (ATCC® CRL-1660) cell lines were propagated and maintained as previously described[16],[21],[40],[53]. Reference DENV1 (16007), DENV2 (NGC, 16681), DENV3 (16562), DENV4 (1036), ZIKV (SV0127/14), and EV-A71 (BRCR) were propagated in Vero, C6/36, and R.D. cells as described[16],[21] Phumee et al.[53]. Cytotoxic concentration (CC50) of LLC/MK2, THP-1, HEK-293, HepG2, Huh-7, and R.D. cells were analyzed as previously described. […] Briefly, cells were seeded overnight and infected with each virus at the multiplicity of infection (M.O.I.) of 0.1 for 1 h. The compound was added during and after infection, and cells were incubated for 72 h. Supernatants were collected for 96-well[55] or a traditional 24-well plaque titration.
(§2) Supplementary Fig. S2. […] Briefly, cells were seeded overnight before the compound addition.

DENV2 NS5/RdRp = molecular target: T1, DENV2 NS5/RdRp (Dengue virus type 2, UniProt P29990); assay: In vitro RdRp assay (SYTO-9 fluorescence); assay type: biochemical, DENV-2
T1 construct: The 73.2 kDa of non-tagged NS5/RdRp was successfully purified by size exclusion chromatography; His-tag (N, cleaved yes); made in house
Method: The production of DENV2 RdRp was performed according to a described protocol. In brief, N-terminally Histidine-tagged DENV2 RdRp (NHis-RdRp) was expressed with 200 µM IPTG (isopropyl-b-D-thiogalactopyranoside) induction, at 37 °C for 4 h. Cell disruption and clarification were sequentially done via sonication and centrifugation at 15,000 rpm for 1 h at 4 °C. His-tagged RdRp was purified by immobilized metal affinity chromatography (IMAC) with 175 mM imidazole elution. His-tag was removed by adding 2 units thrombin per 1 mg protein during dialysis for 2 days at 4 °C. The non-tagged RdRp was further purified by size exclusion chromatography. […]
The RdRp assay for inhibition testing was adapted from the previous publications[46],[71]. […] The nascent double-stranded RNA was quantitated by mixing 10 µl of the reaction mixture with 10 µl of 5 µM SYTO-9 dye in Tris–EDTA buffer and incubating at room temperature for 5 min. Fluorescence was measured at excitation and emission wavelengths of 485 nm and 520 nm, respectively, by using EnSight Multimode Plate Reader (Perkin Elmer, Waltham, MA, USA). The IC50 value was calculated from three independent experiments by using PRISM version 9 (GraphPad Software, Inc., La Jolla, CA, USA).

C57BL/6 mice = assay: Animal toxicity, 7 days intraperitoneal
Method: (A) ALT and (B) Cr levels in infant mice and (C) ALT and (D) Cr levels in adult mice taken at the 8th day after seven consecutive days of 10 mg/kg 8-bromobaicalein, once daily, intraperitoneal administration. Plasma samples were collected for analysis of hepatorenal functions. Each data point represented the ALT or Cr levels of each individual. Error bars indicated the standard deviation of the means.
All methods were carried out in accordance with relevant guidelines and regulations. All experimental protocols were approved by the Institutional Animal Care and Use Committee of the Faculty of Medicine, Chulalongkorn University, Bangkok, Thailand (certificate number: 027/2562), based on the National Institutes of Health, U.S.A.'s criteria for the use and treatment of laboratory animals and by the National University of Singapore (protocol number: R20-0073). All methods are reported in accordance with ARRIVE guidelines (https://arriveguidelines.org) for the reporting of animal experiments. The 8-bromobaicalein was daily administered at 10 mg/kg via intraperitoneal injection for 7 days (n = 6) to determine the drug safety. The control group (n = 6) was injected with the vehicle (5% DMSO, 33.25% polyethylene glycol (PEG.)-400, 1.90% ethanol, and 59.85% distilled water). All mice were weighed daily and monitored for clinical signs using a clinical scoring system. Blood samples were collected via submandibular and cardiac puncture at the 8th day after the first compound administration for alanine transaminase (EnzyChrom, EALT-100, BioAssay, Hayward, CA, USA), and serum creatinine (QuantiChromTM, DICT-500, BioAssay, Hayward, CA, USA) as markers of hepatotoxicity and nephrotoxicity, respectively.

DENV1-4, and ZIKV = assay: Antiviral efficacy, summary over dengue serotypes and Zika; assay type: cell-based
DENV2 NGC = assay: Cell-based time-of-addition study, plaque assay; conditions: 2, 5 or 10 µM, added within 12 h after infection, LLC/MK2, harvested 72 h
Method: Figure 5 A scheme and DENV2 titers (pfu/ml) in LLC/MK2 cells of time-of-drug addition study. Briefly, the 2, 5, and 10 µM 8-bromobaicalein was added into DENV2-infected cells (M.O.I. of 0.1) at various time points. All supermatants were harvested at 72 h and quantified by plaque assay. Errors indicated the standard deviation of three biological replicates.
The protocol was adapted from a previous description. Briefly, LLC/MK2 cells (5 × 10^4) were seeded in a 24-well plate and incubated as described. Cells were infected with DENV2 NGC, unless otherwise indicated, at the M.O.I. of 0.1 before adding the compound at designated concentrations. DMSO at 1% was used as no inhibition control. Supernatants were collected to determined viral titers by plaque titration assay or RT-qPCR.

[2] = Cytotoxicity (CC50), MTS assay; conditions: human; remark: listed apart in the source
From the text: as §1, §2

[3] = 8th day after first injection, 10 mg/kg i.p., infant and adult

Which CC50 at 48 h [1] does the source give for `O=c1cc(-c2ccccc2)oc2c(Br)c(O)c(O)c(O)c12` [8-bromobaicalein] here?
Its CC50 at 48 h is over 100 µM.

And the IC50 (DENV2 NS5/RdRp)?
The IC50 was 34.9 µM.

And the Clinical scorings (C57BL/6 mice; 10 mg/kg i.p. once daily, 7 days)?
The Clinical scorings was “within normal range”.

And the “General health of mice” value (C57BL/6 mice; 10 mg/kg i.p. once daily, 7 days, infant and adult mice)?
Its value is “healthy throughout the experiments”.

And the “Alanine transaminase (ALT) level, treated vs control” value (C57BL/6 mice; [3])?
The value was “insignificantly different”.

What about the “Plasma creatinine (Cr) level, treated vs control” value (C57BL/6 mice; [3]) of the same compound?
The value was “insignificantly different”.

What about the “ALT in adult cohort” value (C57BL/6 mice; adult mice, 10 mg/kg i.p., 7 days) of the same compound?
Its value is “slight ALT increase”.

What about the “Selectivity index (SI) in dengue and Zika viruses” value (DENV1-4, and ZIKV; LLC/MK2) of the same compound?
The value was “about 300”.

What about the EC50 (DENV1-4, and ZIKV; Zika virus, DENV1, read-out: EC50s against DENV1-4 and ZIKV) of the same compound?
Its EC50 is 660 to 880 nM.

What about the “Inhibition of virion progeny” value (DENV2 NGC) of the same compound?
The value was 1–2.5 log concentrations (pfu/mL).

And the CC50 at 48 h [2]?
The CC50 at 48 h was over 100 µM.
